Experimental data as given in PubChem BioAssay (NCI).
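Test compounds were applied to cells in 96-well plates for 48 hours at 5 doses. TGI is the concentration that stops growth completely.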

Experiments:
Experiment in all cases: NCI anticancer screen, dose series, 48 h
T-47D breast = tested on: T-47D breast
MCF7 breast = tested on: MCF7 breast
MDA-MB-435 = tested on: MDA-MB-435
OVCAR-8 ovarian = tested on: OVCAR-8 ovarian
HOP-92 NSCLC = tested on: HOP-92 NSCLC
MALME-3M melanoma = tested on: MALME-3M melanoma
SNB-75 CNS = tested on: SNB-75 CNS
SK-MEL-5 melanoma = tested on: SK-MEL-5 melanoma
SK-MEL-2 melanoma = tested on: SK-MEL-2 melanoma
UACC-62 melanoma = tested on: UACC-62 melanoma
EKVX NSCLC = tested on: EKVX NSCLC
LOX IMVI melanoma = tested on: LOX IMVI melanoma
SF-295 CNS = tested on: SF-295 CNS

Which TGI (T-47D breast) does the source give for `C/C=C/C=C/C1=NN(c2cccc(S(=O)(=O)O)c2)C2(C1)SCC(=O)N2c1nc2ccccc2s1` (stereo unspecified) here?
The TGI was greater than 100 µM.

And the TGI (MCF7 breast)?
Its TGI is greater than 100 µM.

What about the TGI (MDA-MB-435) of the same compound?
The TGI was greater than 100 µM.

What about the TGI (OVCAR-8 ovarian) of the same compound?
Its TGI is greater than 100 µM.

What about the TGI (HOP-92 NSCLC) of the same compound?
Its TGI is greater than 100 µM.

And the TGI (MALME-3M melanoma)?
The TGI was greater than 100 µM.

What about the TGI (SNB-75 CNS) of the same compound?
Its TGI is greater than 100 µM.

And the TGI (SK-MEL-5 melanoma)?
Its TGI is greater than 100 µM.

And the TGI (SK-MEL-2 melanoma)?
Its TGI is greater than 100 µM.

What about the TGI (UACC-62 melanoma) of the same compound?
Its TGI is greater than 100 µM.

What about the TGI (EKVX NSCLC) of the same compound?
The TGI was greater than 100 µM.

What about the TGI (LOX IMVI melanoma) of the same compound?
Its TGI is 51.8 µM.

For `Cc1ccccc1NC(=S)N/N=C(/c1ccccc1)c1ccccn1`, which TGI (T-47D breast) is on record?
The TGI was 12.4 µM.

What about the TGI (MCF7 breast) of the same compound?
Its TGI is 15.3 µM.

What about the TGI (MDA-MB-435) of the same compound?
The TGI was 14.2 µM.

What about the TGI (OVCAR-8 ovarian) of the same compound?
Its TGI is 11.8 µM.

What about the TGI (HOP-92 NSCLC) of the same compound?
Its TGI is 13.2 µM.

And the TGI (SF-295 CNS)?
Its TGI is 8.7 µM.

What about the TGI (MALME-3M melanoma) of the same compound?
The TGI was 11.8 µM.

What about the TGI (SNB-75 CNS) of the same compound?
Its TGI is 17.4 µM.

And the TGI (SK-MEL-5 melanoma)?
Its TGI is 3.93 µM.

What about the TGI (SK-MEL-2 melanoma) of the same compound?
The TGI was 6.9 µM.

What about the TGI (UACC-62 melanoma) of the same compound?
The TGI was 17.1 µM.

What about the TGI (EKVX NSCLC) of the same compound?
Its TGI is 3.43 µM.

And the TGI (LOX IMVI melanoma)?
Its TGI is 20.4 µM.

Which results are given for `COC(=O)C1=C(OC(=O)/C(=C/c2ccc(Cl)cc2)c2ccccc2)C(C(=O)OC)[C@@]2(O)[C@@H](C(=O)OC)[C@H](C)C[C@@H]1[C@@H]2C(=O)OC` (stereo partly specified)?
TGI (T-47D breast): > 100 µM; TGI (MCF7 breast): > 100 µM; TGI (MDA-MB-435): > 100 µM; TGI (OVCAR-8 ovarian): > 100 µM; TGI (HOP-92 NSCLC): > 100 µM; TGI (SF-295 CNS): > 100 µM; TGI (MALME-3M melanoma): > 100 µM; TGI (SNB-75 CNS): > 100 µM; TGI (SK-MEL-5 melanoma): > 100 µM; TGI (SK-MEL-2 melanoma): > 100 µM; TGI (UACC-62 melanoma): > 100 µM; TGI (EKVX NSCLC): > 100 µM; TGI (LOX IMVI melanoma): > 100 µM

With `O=C(Nc1ccc2ccccc2c1)Nn1cnnc1` as the compound, how does the TGI (T-47D breast) read?
The TGI was greater than 100 µM.

What about the TGI (MCF7 breast) of the same compound?
Its TGI is greater than 100 µM.

What about the TGI (MDA-MB-435) of the same compound?
The TGI was greater than 100 µM.

What about the TGI (OVCAR-8 ovarian) of the same compound?
Its TGI is greater than 100 µM.

What about the TGI (HOP-92 NSCLC) of the same compound?
Its TGI is greater than 100 µM.

What about the TGI (SF-295 CNS) of the same compound?
Its TGI is greater than 100 µM.

What about the TGI (MALME-3M melanoma) of the same compound?
Its TGI is greater than 100 µM.

What about the TGI (SNB-75 CNS) of the same compound?
The TGI was greater than 100 µM.

What about the TGI (SK-MEL-5 melanoma) of the same compound?
Its TGI is greater than 100 µM.

What about the TGI (SK-MEL-2 melanoma) of the same compound?
Its TGI is greater than 100 µM.

And the TGI (UACC-62 melanoma)?
Its TGI is greater than 100 µM.

And the TGI (EKVX NSCLC)?
Its TGI is greater than 100 µM.

What about the TGI (LOX IMVI melanoma) of the same compound?
Its TGI is greater than 100 µM.

Which TGI (T-47D breast) does the source give for `O=C(c1ccc(Cl)cc1)N1N=C(c2ccc(Cl)cc2)CC1(O)c1cc(F)c(Cl)cc1Cl` (stereo unspecified) here?
The TGI was greater than 100 µM.

And the TGI (MCF7 breast)?
The TGI was greater than 100 µM.

And the TGI (MDA-MB-435)?
Its TGI is 39.5 µM.

And the TGI (OVCAR-8 ovarian)?
The TGI was greater than 100 µM.

And the TGI (HOP-92 NSCLC)?
The TGI was 51.3 µM.

And the TGI (SF-295 CNS)?
The TGI was greater than 100 µM.

And the TGI (MALME-3M melanoma)?
Its TGI is greater than 100 µM.

What about the TGI (SNB-75 CNS) of the same compound?
The TGI was 44.5 µM.

And the TGI (SK-MEL-5 melanoma)?
The TGI was greater than 100 µM.

What about the TGI (SK-MEL-2 melanoma) of the same compound?
The TGI was 39 µM.

And the TGI (UACC-62 melanoma)?
Its TGI is 63.3 µM.

And the TGI (EKVX NSCLC)?
Its TGI is 59.3 µM.

And the TGI (LOX IMVI melanoma)?
The TGI was 43.3 µM.

Which results are given for `CC(=O)O[C@H]1CC[C@@]2(C)C(=CC[C@@H]3[C@@H]2CC[C@]2(C)c4nc(N)c(C#N)cc4C[C@@H]32)C1`?
TGI (T-47D breast): > 96.6 µM; TGI (MCF7 breast): > 100 µM; TGI (MDA-MB-435): > 100 µM; TGI (OVCAR-8 ovarian): > 100 µM; TGI (HOP-92 NSCLC): > 100 µM; TGI (SF-295 CNS): > 100 µM; TGI (MALME-3M melanoma): > 100 µM; TGI (SNB-75 CNS): 23.6 µM; TGI (SK-MEL-5 melanoma): 43.4 µM; TGI (SK-MEL-2 melanoma): > 100 µM; TGI (UACC-62 melanoma): > 100 µM; TGI (EKVX NSCLC): > 86.9 µM; TGI (LOX IMVI melanoma): > 100 µM

`COc1ccc(N2CCN(c3ccc4c(c3)NCC(=O)N4)CC2)cc1` was tested. Which TGI (T-47D breast) did it give?
The TGI was 33.4 µM.

What about the TGI (MCF7 breast) of the same compound?
Its TGI is greater than 100 µM.

What about the TGI (MDA-MB-435) of the same compound?
The TGI was greater than 100 µM.

What about the TGI (OVCAR-8 ovarian) of the same compound?
Its TGI is greater than 100 µM.

What about the TGI (HOP-92 NSCLC) of the same compound?
The TGI was 63.5 µM.

And the TGI (SF-295 CNS)?
Its TGI is greater than 100 µM.

And the TGI (MALME-3M melanoma)?
Its TGI is greater than 100 µM.

And the TGI (SNB-75 CNS)?
Its TGI is 93.8 µM.

And the TGI (SK-MEL-5 melanoma)?
The TGI was greater than 100 µM.

What about the TGI (SK-MEL-2 melanoma) of the same compound?
The TGI was 69.6 µM.

What about the TGI (UACC-62 melanoma) of the same compound?
The TGI was 56.5 µM.

What about the TGI (EKVX NSCLC) of the same compound?
The TGI was greater than 100 µM.

What about the TGI (LOX IMVI melanoma) of the same compound?
The TGI was greater than 100 µM.

Which results are given for `CCOC(OCC)C(CCc1ccccc1)c1c(N)nc(N)[nH]c1=O` (stereo unspecified)?
TGI (T-47D breast): > 100 µM; TGI (MCF7 breast): > 100 µM; TGI (MDA-MB-435): > 100 µM; TGI (OVCAR-8 ovarian): > 100 µM; TGI (HOP-92 NSCLC): 86.8 µM; TGI (SF-295 CNS): > 100 µM; TGI (MALME-3M melanoma): > 100 µM; TGI (SNB-75 CNS): > 100 µM; TGI (SK-MEL-5 melanoma): > 100 µM; TGI (SK-MEL-2 melanoma): > 100 µM; TGI (UACC-62 melanoma): > 100 µM; TGI (EKVX NSCLC): 22.3 µM; TGI (LOX IMVI melanoma): > 100 µM

With `O=C(c1ccc(Cl)cc1)N(Cc1cccnc1)C(=S)N(Cc1cccnc1)C(=O)c1ccc(Cl)cc1` as the compound, how does the TGI (T-47D breast) read?
Its TGI is greater than 100 µM.

And the TGI (MCF7 breast)?
Its TGI is greater than 100 µM.

And the TGI (MDA-MB-435)?
The TGI was greater than 100 µM.

And the TGI (OVCAR-8 ovarian)?
The TGI was 85.3 µM.

What about the TGI (HOP-92 NSCLC) of the same compound?
Its TGI is greater than 100 µM.

And the TGI (SF-295 CNS)?
The TGI was greater than 100 µM.

What about the TGI (MALME-3M melanoma) of the same compound?
Its TGI is greater than 100 µM.

And the TGI (SNB-75 CNS)?
Its TGI is greater than 100 µM.

And the TGI (SK-MEL-5 melanoma)?
Its TGI is 90.1 µM.

What about the TGI (SK-MEL-2 melanoma) of the same compound?
The TGI was 49 µM.

And the TGI (UACC-62 melanoma)?
Its TGI is greater than 100 µM.

And the TGI (EKVX NSCLC)?
The TGI was greater than 100 µM.

And the TGI (LOX IMVI melanoma)?
The TGI was 47.4 µM.
